Test results published in patent US20110046056A1, “APOA-1 PEPTIDE MIMETICS” (priority 2007, published 2011).
*1 amine or outer side, *2 acyl side, *3 side chain or, on linkers, in order; H or OH if unused. Where a SMILES comes first, the peptide text is derived from it. Bridges are numbered along the chain shown (N, C = ends). Where no end group is shown, it is not given here. [ ]: non-standard residue; d: D form. dNle(6-ylidene) = O=C([C@@H](CCCC=[*:3])N[*:1])[*:2]; Ala(5-hexenyl) = C=CCCCCC[C@H](N)C(=O)O; dNle(6-vinyl) = C=CCCCC[C@@H](N)C(=O)O; R5 = C=CCCC[C@@](C)(N)C(=O)O; 12H3 = not defined here

Legend:
[1] = molecular target: T1, ABCA1 cholesterol transporter protein (Mus musculus, UniProt P41233); assay: ABCA1-dependent cholesterol efflux from RAW mouse macrophage cells (in vitro RCT assay); format: cell-based; details: for EC50: read-out: EC50 in the cholesterol efflux assay (RCT in vitro assay)
T1 construct: endogenous in cells
T1 sequence (P41233 whole entry): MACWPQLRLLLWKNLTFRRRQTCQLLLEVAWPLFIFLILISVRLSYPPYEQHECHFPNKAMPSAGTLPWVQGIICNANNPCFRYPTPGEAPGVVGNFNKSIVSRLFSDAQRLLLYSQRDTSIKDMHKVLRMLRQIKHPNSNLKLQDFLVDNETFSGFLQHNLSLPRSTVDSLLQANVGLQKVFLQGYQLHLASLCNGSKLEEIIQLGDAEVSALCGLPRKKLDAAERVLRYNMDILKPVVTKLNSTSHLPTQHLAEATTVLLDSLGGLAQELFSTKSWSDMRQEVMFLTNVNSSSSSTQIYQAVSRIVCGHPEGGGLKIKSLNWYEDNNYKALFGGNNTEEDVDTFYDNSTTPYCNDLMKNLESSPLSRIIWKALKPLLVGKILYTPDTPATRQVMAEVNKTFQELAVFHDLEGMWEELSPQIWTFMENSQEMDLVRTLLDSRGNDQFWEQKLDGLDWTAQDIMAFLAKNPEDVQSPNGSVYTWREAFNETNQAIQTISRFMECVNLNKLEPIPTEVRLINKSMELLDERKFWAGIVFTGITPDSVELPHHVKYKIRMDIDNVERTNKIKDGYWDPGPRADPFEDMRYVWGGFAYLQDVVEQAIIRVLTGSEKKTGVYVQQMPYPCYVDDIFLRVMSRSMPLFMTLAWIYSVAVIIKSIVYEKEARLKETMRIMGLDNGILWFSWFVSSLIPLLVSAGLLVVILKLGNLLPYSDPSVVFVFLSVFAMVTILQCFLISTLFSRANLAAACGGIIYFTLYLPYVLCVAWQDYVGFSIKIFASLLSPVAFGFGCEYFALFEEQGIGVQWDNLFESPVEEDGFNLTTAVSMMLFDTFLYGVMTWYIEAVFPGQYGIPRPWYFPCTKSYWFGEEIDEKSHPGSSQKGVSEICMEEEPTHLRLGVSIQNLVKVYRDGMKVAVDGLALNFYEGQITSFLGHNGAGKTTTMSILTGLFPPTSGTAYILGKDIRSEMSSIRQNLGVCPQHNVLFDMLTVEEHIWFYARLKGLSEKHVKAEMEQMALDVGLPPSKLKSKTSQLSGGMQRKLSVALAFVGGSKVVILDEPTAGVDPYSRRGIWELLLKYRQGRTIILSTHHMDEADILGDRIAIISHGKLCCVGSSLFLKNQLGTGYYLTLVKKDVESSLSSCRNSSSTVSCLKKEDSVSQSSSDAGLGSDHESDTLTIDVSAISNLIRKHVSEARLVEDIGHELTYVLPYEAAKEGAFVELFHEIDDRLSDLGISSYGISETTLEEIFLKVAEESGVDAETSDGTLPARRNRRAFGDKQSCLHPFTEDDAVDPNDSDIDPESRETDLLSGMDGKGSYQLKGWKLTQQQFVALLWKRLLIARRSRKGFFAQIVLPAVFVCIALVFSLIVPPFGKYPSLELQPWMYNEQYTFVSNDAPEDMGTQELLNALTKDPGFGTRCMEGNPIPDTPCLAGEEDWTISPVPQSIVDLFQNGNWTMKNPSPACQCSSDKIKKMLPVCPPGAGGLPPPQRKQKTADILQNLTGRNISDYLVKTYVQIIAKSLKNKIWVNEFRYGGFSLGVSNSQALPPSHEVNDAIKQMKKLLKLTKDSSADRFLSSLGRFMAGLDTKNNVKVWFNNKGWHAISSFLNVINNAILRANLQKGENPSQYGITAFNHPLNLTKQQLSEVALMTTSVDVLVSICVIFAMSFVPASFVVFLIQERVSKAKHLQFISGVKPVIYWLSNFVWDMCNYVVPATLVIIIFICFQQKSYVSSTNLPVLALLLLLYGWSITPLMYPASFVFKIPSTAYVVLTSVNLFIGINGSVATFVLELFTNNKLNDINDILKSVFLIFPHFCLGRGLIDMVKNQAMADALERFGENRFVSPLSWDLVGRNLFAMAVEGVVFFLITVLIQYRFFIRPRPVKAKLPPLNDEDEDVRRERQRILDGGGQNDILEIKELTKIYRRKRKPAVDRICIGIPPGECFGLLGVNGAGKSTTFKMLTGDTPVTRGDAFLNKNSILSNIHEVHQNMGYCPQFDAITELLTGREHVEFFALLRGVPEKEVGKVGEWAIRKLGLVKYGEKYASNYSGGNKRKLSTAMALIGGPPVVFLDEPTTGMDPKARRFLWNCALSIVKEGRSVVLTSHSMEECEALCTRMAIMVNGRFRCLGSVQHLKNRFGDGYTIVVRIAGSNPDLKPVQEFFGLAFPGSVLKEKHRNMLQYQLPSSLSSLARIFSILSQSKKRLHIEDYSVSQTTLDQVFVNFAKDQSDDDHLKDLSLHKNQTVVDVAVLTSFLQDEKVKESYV
In short: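 RAW macrophages labelled with ^3H-cholesterol (5 μCi/ml) 24 h, equilibrated overnight serum-free, then given eight-point peptide titrations 24 h with or without 150 μM CPT-cAMP. Percent efflux = medium counts/(medium + lysate); plain-medium efflux subtracted from cAMP value gives ABCA1-dependent efflux, fitted for EC50.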

[2] = tested on: atheroma in ApoE-deficient mice; assay: Atheroma volume in ApoE-deficient mice by magnetic resonance imaging; format: in vivo, mouse; details: 20 mg per kg subcutaneously once daily; after 5 weeks of treatment; compared to vehicle-treated apoE-deficient mice; MRI
Excerpt: The ultimate goal of developing these mimetic peptides was for the acute and chronic treatment of atherosclerotic lesions in human patients.

[3] = Lipid (liposome) solubilization, turbidimetric method; format: biochemical
Method: As noted above, the other important parameter was phospholipid solubilization. A turbidimetric method is used to determine the solubilization capacity of peptides of the present invention. First, a three-fold serial titration of the peptide is prepared in a polypropylene v-shaped 96-well plate. The eight-point titration is done in phosphate-buffered saline (PBS, pH 7.5) or DMSO from a starting concentration that allows for addition to an optically-clear bottomed assay plate in <100 μl aliquots to yield a starting concentration of 500 μM in 200 μl final well volume. PBS is then added to each well to bring the total volume to 100 μl. Any bubbles in the wells must be dispersed to avoid erroneous results. Next, from a turbid but homogeneous emulsion of dimyristoyl phosphatidylcholine at 0.5 mg/ml in PBS, 100 μl is added to each well in the assay plate, the plate is inserted into the NEPHELOSTAR (BMG LABTECH INSTRUMENTS), and readings are taken immediately and every 15 minutes over 2 hours.
A true 0-point value is calculated by averaging the readings of the wells with phospholipid but no peptide. For each peptide concentration, a percent decrease in turbidity is calculated by subtracting the 0-point value from the corresponding 30 and 120 minute readings and dividing by that 0-point value. Finally the EC50 values for both time points are determined using PRISM software (Table 2).

human red blood cells = assay: Red blood cell (RBC) lysis assay; format: cell-based
Method: The RBC lysis assay has been described previously (Kurtz, M. B. et al. (1994); Wang, J. et al., PNAS 104 (18), 7612-7616 (2007)). Basically, human erythrocytes are collected in a vacutainer tube with EDTA from human donors. Two ml of the freshly drawn whole blood is added to 6 ml of sterile saline and gently mixed then centrifuged at 5° C. for 5 minutes at 2000 rpm. The supernatant is discarded and the human red blood cells are resuspended with 6 ml of sterile saline and centrifuged again at 5° C. for 5 minutes at 2000 rpm. This procedure is repeated 2 times. A three percent suspension of the washed red blood cells is prepared by adding 0.3 ml of the washed red blood cells to 9.7 ml of sterile saline. The final concentration of test peptide ranging 160-2.5 (or 150-2.3) μM in 100 μl sterile saline containing 3.2% Me2SO is prepared in 96-well MICROTEST U-bottom plates (BECTON DICKINSON, BD-353227). The RBC lysis is initiated by addition of 5 μl of 3% washed human red blood cell suspension to the each well in the plates. The plates are incubated overnight at room temperature, then centrifuged at 2000 rpm for 5 minutes and read immediately. Hemolysis of red blood cells is indicated by complete or partial clearing (lysis) of the supernatants with either no or a rough RBC pellet in the bottom of the wells. […]

[4] = molecular target: T2, ATP-binding cassette transporter A1 (ABCA1) (mouse, UniProt P41233 1-2261); assay: cell-based or functional assay
T2 sequence (P41233 whole entry): as above

[5] = molecular target: T2, ATP-binding cassette transporter A1 …; assay: cell-based or functional assay; remark: listed apart in the source

C=CCCCCC[C@H](NC(=O)[C@H](CCC(=O)O)NC(=O)[C@H](CC(N)=O)NC(=O)[C@H](CC(C)C)NC(=O)[C@H](CCCCN)NC(=O)[C@H](CCC(=O)O)NC(=O)[C@H](CCCNC(=N)N)NC(=O)[C@H](CCCCCC=C)NC(=O)[C@H](CCC(=O)O)NC(=O)[C@H](CC(=O)O)NC(=O)[C@H](CC(C)C)NC(=O)[C@@H](NC(=O)[C@@H]1CCCN1C(C)=O)C(C)C)C(=O)N[C@@H](CC(C)C)C(=O)N[C@@H](CCC(=O)O)C(=O)N[C@@H](C)C(=O)N[C@@H](CC(C)C)C(=O)N[C@@H](CCCCN)C(=O)N[C@@H](CCC(N)=O)C(=O)N[C@@H](CCCCN)C(=O)N[C@@H](CC(C)C)C(=O)N[C@@H](CCCCN)C(N)=O [SEQ ID NO 43, PVLDES7HREKLNES7HLEALKQKLK] (Ac-PVLDE[Ala(5-hexenyl)]REKLNE[Ala(5-hexenyl)]LEALKQKLK-NH2; C-terminus assumed)
EC50 [1]: 300 nM
atheroma volume [2]: significant reduction

PVLDEFRER5MELNER5MELEALKQKLK (Ac-PVLDEFRE[R5]LNE[R5]LEALKQKLK; not fully specified (C-terminus); bridges not given here) [SEQ ID NO 16]
activity in the cholesterol efflux / in vitro RCT assay, in words [1]: very low to no activity
lipid binding / ability to clear liposome turbidity, in words [3]: good lipid binding

O=C(N[C@H](CO)[C@H](O)c1ccc([N+](=O)[O-])cc1)C(Cl)Cl [Chloramphenicol]
minimum lytic concentration (MLC) (human red blood cells): > 64 µg/mL

PVLDEFRES5HLNES5HLEALKQKLK (Ac-PVLDEFRE[S5H]LNE[S5H]LEALKQKLK; not fully specified (C-terminus)) [SEQ ID NO 15]
activity in the cholesterol efflux / in vitro RCT assay, in words [1]: very low to no activity
lipid binding / ability to clear liposome turbidity, in words [3]: good lipid binding

CC(=O)N1CCC[C@H]1C(=O)N[C@H](C(=O)N[C@@H](CC(C)C)C(=O)N[C@@H](CC(=O)O)C(=O)N[C@@H](CCC(=O)O)C(=O)N[C@@H](Cc1ccccc1)C(=O)N[C@@H](CCCNC(=N)N)C(=O)N[C@@H](CCC(=O)O)C(=O)N[C@@H]1CCCC=CCCC[C@H](C(=O)N[C@@H](CC(C)C)C(=O)N[C@@H](CCC(=O)O)C(=O)N[C@@H](C)C(=O)N[C@@H](CC(C)C)C(=O)N[C@@H](CCCCN)C(=O)N[C@@H](CCC(N)=O)C(=O)N[C@@H](CCCCN)C(=O)N[C@@H](CC(C)C)C(=O)N[C@@H](CCCCN)C(N)=O)NC(=O)[C@H](CCC(=O)O)NC(=O)[C@H](CC(N)=O)NC(=O)[C@H](CC(C)C)NC1=O)C(C)C [SEQ ID NO 12, PVLDEFRER5HLNER5HLEALKQKLK (CYCLO R5H9-R5H13)] (Ac-PVLDEFRE[dNle(6-ylidene)]LNE[dNle(6-ylidene)]LEALKQKLK-NH2; staple 9-13; C-terminus assumed)
EC50 [1]: 10000 nM
IC50 ([3]; read-out: IC50 in the liposome solubilization assay): 60000 nM

Ac-PVLDEFREKLNEELEALKQKLK-NH2 [SEQ ID NO 1, reference compound]
activity in the cholesterol efflux / in vitro RCT assay, in words [1]: inactive
lipid binding / ability to clear liposome turbidity, in words [3]: inactive

Ac-PVLDEFREKLNE[Ala(5-hexenyl)]LEALKQKLK [CONS[S7H^13]]
EC50 in the RCT in vitro assay [4]: 1600 nM
EC50 in the cholesterol efflux assay [4]: 2800 nM
ABCA1-dependent cholesterol efflux EC50 [5]: 2000 nM

B1: CONS[(RS)12H3^13] (peptide)
peptide: Ac-PVLDEFREKLNE[12H3]LEALKQKLK
modifications: not fully specified (C-terminus); printed as PVLDEFREKLNE-(RS)12H3-LEALKQKLK; reading uncertain
EC50 in the RCT in vitro assay [4]: 200 to 400 nM

Ac-PVLDE[Ala(5-hexenyl)]REKLNE[dNle(6-vinyl)]LEALKQKLK [S7H [F6-E13]R6H OPEN]
EC50 in the cholesterol efflux assay [4]: 1200 nM
ABCA1-dependent cholesterol efflux EC50 [5]: 1300 nM
